Laboratory results as given in patent US11802107B2, “Compounds and methods of use” (Signum Biosciences, Inc., priority 2017, dated 2023).
Converted amounts (≈) assume the structure as drawn.

Columns and labels:
[1] = tested on: P. acnes (ATCC 6919); assay: Minimal inhibitory concentration (MIC) against P. acnes; assay type: cell-based, Propionibacterium acnes; conditions: Cutibacterium acnes, ATCC6919, 72 h, P. acnes ATCC 6919, 10^6 CFU/mL, read-out: MIC
Protocol: To determine minimal inhibitory concentration (MIC), reagents were dissolved in vehicle (5% v/v) and then added to bacteria suspension. P. acnes (ATCC® 6919TM) at 10^6 CFU/mL was incubated with test materials at the concentrations of two-fold serial dilution (0.25-500 μg/mL) and incubated for 72 hours (P. acnes).

[2] = tested on: P. acnes (ATCC 6919); assay: Minimal bactericidal concentration (MBC) against P. acnes; assay type: cell-based, Propionibacterium acnes; conditions: Cutibacterium acnes, ATCC6919; P. acnes 10^7 CFU/mL, in PBS, anaerobic conditions
[3] = tested on: P. acnes (ATCC 6919) biofilms; assay: P. acnes biofilm eradication (MBEC), crystal violet; assay type: cell-based, Propionibacterium acnes; conditions: 24 hours, ≥80% eradication vs vehicle
Protocol: P. acnes (ATCC® 6919™) was cultured as described above. Bacteria biofilms were established by seeding P. acnes cultures in 96-well plates and incubating for 24 hours without agitation. Later, biofilms were incubated with test materials for 24 hours. Remaining biofilms were washed and stained with crystal violet. […] The absorbance was measured at 595 nm in a microplate reader. […] Results from disk diffusion susceptibility testing (Kirby-Bauer Method) after 72 hours incubation were also obtained.

[4] = tested on: DEFB4B (hBD2); assay: NHEK antimicrobial peptide gene expression, hBD2; assay type: cell-based, human; conditions: 10 μM, 24 hours, qPCR, normalized to GAPDH
Protocol: (§1) Normal human epidermal keratinocytes (NHEKs) from neonatal donors were obtained from Thermo-Fisher (Cat No. C-001-5C). Cells were cultured in 6-well plates for 24 hours before treatments with EpiLife media (Cat No. MEPI500CA) supplemented with keratinocytes growth supplement (Cat No. 50015). On Day 2, media was removed and incubated with test materials (10 μM) for 24 hours at 37° C. and 5% CO2. On Day 3, total RNA was extracted from cells using the RNAqueous® kit (Ambion®; Cat No. 1912) and cDNA was obtained using the High Capacity RNA-to-cDNA kit (Applied Biosystems®; Cat No. 4387406). Quantitative PCR (qPCR) was performed using the TaqMan® Fast Advanced Master Mix (Applied Biosystems®; Cat No. 4444556) and specific TaqMan®-probes human gene primers DEFB4B (hBD2), DEFB103 (hBD3), HCAP18 and GAPDH to calculate the relative gene fold expression change per treatment. Gene expression analysis was performed using the comparative Ct method (also known as the 2-[delta][delta]Ct) approach by comparing the Ct values of the treated samples with the untreated samples and normalized to GAPDH gene expression as endogenous housekeeping gene. Results were represented as fold-expression/untreated cells.

[5] = tested on: DEFB103 (hBD3); assay: NHEK antimicrobial peptide gene expression, hBD3; assay type: cell-based, human; conditions: 10 μM, 24 hours, qPCR, normalized to GAPDH
Protocol: as §1

[6] = tested on: HCAP18; assay: NHEK antimicrobial peptide gene expression, hCAP18; assay type: cell-based, human; conditions: 10 μM, 24 hours, qPCR, normalized to GAPDH
Protocol: as §1

[7] = tested on: IL-8; assay: P. acnes-induced IL-8 protein on human PBMCs (ELISA); assay type: cell-based; conditions: PBMCs + live P. acnes 1:1, test material 30 PM, 24 hours
Protocol: (§2) Cryopreserved human Peripheral Blood Mononuclear cells (PBMCs) from healthy adult donors were obtained from Zen Bio, Inc (Cat No. SER-PBMC-F). Cells were cultured in 12-well plates with lymphocyte media (Cat No. LYMPH-1) and incubated with test materials ([…]) and live P. acnes (ATCC® 6919TM) at 1:1 PBMC: P. acnes bacteria ratio for 24 hours at 37° C. and 5% CO2. After incubation, cell media supernatants were harvested and used to measure pro-inflammatory cytokine levels (IL-8, TNF-α, IL-1b, IL-17) using ELISA kits (BD Biosciences® #557966, #555212, #555244; R&D Systems® #DY317). Total RNA was extracted from cells using the RNAqueous® kit (Ambion®; Cat No. 1912) and cDNA was obtained using the High Capacity RNA-to-cDNA kit (Applied Biosystems®; Cat No. 4387406). Quantitative PCR (qPCR) was performed using the TaqMan® Fast Advanced Master Mix (Applied Biosystems®; Cat No. 4444556) and specific TaqMan®-probes human gene primers CXCL8 (IL-8), IL1B (IL-1b), TNF (TNF-α), IL17A (IL-17A) and GAPDH to calculate the relative gene fold expression change per treatment. Gene expression analysis was performed using the comparative Ct method (also known as the 2-[delta][delta]Ct) approach by comparing the Ct values of P. acnes-only treated cells with the untreated samples and normalized to GAPDH gene expression as endogenous housekeeping gene.

[8] = tested on: IL-1b; assay: P. acnes-induced IL-1b protein on human PBMCs (ELISA); assay type: cell-based; conditions: PBMC, PBMCs + live P. acnes 1:1, test material 30 PM, 24 hours
Protocol: as §2

[9] = tested on: IL-17; assay: P. acnes-induced IL-17 protein on human PBMCs (ELISA); assay type: cell-based; conditions: PBMC, PBMCs + live P. acnes 1:1, test material 30 PM, 24 hours
Protocol: as §2

[10] = tested on: TNF-α; assay: P. acnes-induced TNF-α protein on human PBMCs (ELISA); assay type: cell-based; conditions: PBMCs + live P. acnes 1:1, test material 30 PM, 24 hours
Protocol: as §2

[11] = tested on: IL-8; assay: Peptidoglycan (PGN)-induced IL-8 on NHEKs; assay type: cell-based, human; conditions: Homo sapiens; NHEK, PGN 10 μg/mL, 24 hours, ELISA; read-out: PGN-NHEK 1L-8 Protein IC50
Protocol: (§3) Normal human epidermal keratinocytes (NHEKs) from neonatal donors were obtained from Thermo-Fisher (Cat No. C-001-5C). Cells were cultured in 96-well plates for 24 hours with EpiLife media (Cat No. MEPI500CA) supplemented with keratinocytes growth supplement (Cat No. S0015). On Day 2, media was removed and replaced with supplement-depleted medium for 24 hours. On Day 3, media was removed and cells were pre-treated with test materials (≤1 μM) for 2 hours and later co-treated with test materials and PGN (Sigma Aldrich, Cat No. 77140) at 10 μg/mL and incubated for 24 hours at 37° C. and 5% CO2. PGN is a TLR-2 agonist. After incubation, cell media supernatants were harvested and used to measure pro-inflammatory cytokine levels (IL-8) using ELISA kit (BD Biosciences® #555244). Results were represented as percent of inhibition relative to untreated and PGN-only treated cells. IC50 values were determined by non-linear regression analysis using the four-parameter logistic equation.

[12] = tested on: subjects with mild to moderate acne; assay: 8-week clinical study in subjects with mild to moderate acne; assay type: in vivo; parameters: scale not given here; conditions: E 1% w/w, BPO 3% w/w, human
Text: Subjects used the assigned product at home for 8 weeks. Subjects returned post baseline at week 2, 4 and 8. At each visit subjects underwent expert clinical grading and test site photography. […] The severity of acne signs and symptoms on the faces of >18 yo subjects were clinically assessed by IGA scale during an 8-week Study period. In addition, UV light mode was utilized to observe porphyrins fluorescence (orange-red dots).

[13] = tested on: IL-8; assay: TPA-induced IL-8 on NHEKs; assay type: cell-based; conditions: Homo sapiens; NHEK, TPA 5 ng/mL, 24 hours, ELISA
Protocol: as §3, with “TPA” for “PGN”, “P8139)” for “77140)”, “5 ng/mL” for “10 μg/mL”, “CO2.” for “CO2. PGN is a TLR-2 agonist.”, “TPA-only” for “PGN-only”

[14] = tested on: Swiss Webster (ICR) mice; assay: TPA-induced skin irritation in vivo model (mouse ear); conditions: topical @ 1% w/v, 24 hour
Protocol: Outbred male Swiss Webster (ICR) mice were purchased from Hilltop Lab Animals (Scottdale, PA) and were used between 10 and 12 weeks of age and we followed a similar protocol previously described (Gordon et al., 2008). Mice received 1.2 μg/20 μl TPA dissolved in acetone (10 μl applied both to the dorsal and ventral surfaces of the mouse ear using a solvent pipette) to each ear to induce acute irritation (6 per group). Test Materials were co-treated with TPA or applied 5 minutes after TPA dose, at various concentrations (0.6 to 800 μg/20 μl) in ethanol. After 24 hour treatment, edema was measured by ear thickness.

[15] = tested on: Balb/C mice; assay: Oxazolone-induced delayed-type hypersensitivity (DTH) in vivo model; conditions: Mus musculus, topical @1%, 24 hours, read-out: Edema % inhibition
Protocol: Inbred male Balb/C mice were purchased from Hilltop Lab Animals (Scottdale, PA) and were used between 8 and 10 weeks of age. Mice backs were shaved and 100 μl of 3% v/v Oxazolone (Sigma Aldrich, Cat No. E0753) in acetone/olive oil (4:1) was applied to dorsal skin for sensitization. On Day 7, ears were challenged with 0.5% v/v Oxazolone and 30 minutes after challenge, test materials at 3% w/v were applied to ears (10 μl applied both to the dorsal and ventral surfaces of the mouse ear using a solvent pipette) and 24 hours later, skin thickness (edema) was measured. A 6-mm punch biopsy was obtained from each ear, snap frozen in liquid nitrogen. Ear skin biopsy punches were pulverized using FastPrep®-24 Biopulverizer (MP Biomedical, CatNo. 116004500) and Lysing Matrix A tubes (CatNo. 16910050). Protein extracts were obtained using 500 μL/tissue of cold T-PER buffer (ThermoFisher, CatNo. 78510) with Protease inhibitors (Sigma-Aldich, CatNo. 58820-20TAB). Soluble protein fractions were used to measure cytokine levels (IL-4) using ELISA kit (BD Biosciences® #555232). Results were represented as percent of inhibition relative to unsensitized and sensitized-only treated animals. Vehicle for presently disclosed compounds was 60:40 H2O:EtOH and 1:1 Acetone:EtOH for AN2718. (n=5-15 animals per treatment group).
Compound C was further analyzed at various dosages against 0.4 mg/ear of […] by the above protocol, data representing the average±S.E. of cumulative data from three independent experiments (n=12-15 mice per group) is shown below: […]

[16] = tested on: IL-13; assay: Concanavalin-A-induced IL-13 on PBMCs; assay type: cell-based; conditions: Homo sapiens, PBMC, ConA, 24 hours, ELISA
[17] = tested on: IL-31; assay: Anti-CD3/CD28+IL-4-induced IL-31 on PBMCs; assay type: cell-based; conditions: Homo sapiens, PBMC, anti-CD3/CD28 beads + 50 ng/mL IL-4, 48 hours, ELISA, read-out: TCR/IL-4-PBMCs IL-31 IC50
Protocol: Cryopreserved human Peripheral Blood Mononuclear cells (PBMCs) from healthy adult donors were obtained from Zen Bio, Inc (Cat No. SER-PBMC-F). Cells were cultured in 96-well plates with lymphocyte media (Cat No. LYMPH-1) and were pre-treated with test materials (≤100 μM) for 2 hours and later co-treated with test materials and anti-CD3/CD28 beads (Thermo-Fisher; Cat No. 11131D) and 50 ng/mL recombinant human IL-4 (R&D Systems® #204-IL) for 48 hours at 37° C. and 5% CO2. After incubation, cell media supernatants were harvested and used to measure cytokine levels (IL-22, IL-31) using ELISA kits (R&D Systems® #DY782, #DY2824). Results were represented as percent of inhibition relative to untreated and anti-CD3/CD28+IL-4 only treated cells. IC50 values were determined by non-linear regression analysis using the four-parameter logistic equation.

MIC [1] | IC50 [11] | SMILES | MBC [2] | MBEC [3] | hBD2 gene expression [4] | hBD3 gene expression [5] | hCAP18 gene expression [6] | IL-8 Protein % inhibition [7] | inhibition at 30 pM [8] | inhibition at 30 pM [9] | TNFa-Protein % inhibition [10] | other results
1000 µg/mL (≈ 5.31 mM) | – | O=C(O)CCCCCCCC(=O)O [Azelaic Acid, reference compound] | > 2000 µg/mL | 8000 μg/mL and (42503) μM | 1.8 Fold-expression/untreated cells | 0.9 Fold-expression/untreated cells | 1.1 Fold-expression/untreated cells | 43% | 66% | 0% | 0% | –
200 µg/mL (≈ 0.826 mM) | > 1 µM | O=C(OOC(=O)c1ccccc1)c1ccccc1 [Benzoyl Peroxide, reference compound] | > 200 µg/mL | 367 μg/mL and (1515) μM | 1.6 Fold-expression/untreated cells | 1.2 Fold-expression/untreated cells | 2.8 Fold-expression/untreated cells | 78% | 33% | 15% | 0% | Investigator Global Assesment (IGA) Scale ([12]; 2 week): 2; Investigator Global Assesment (IGA) Scale ([12]; 4 week): 1; Investigator Global Assesment (IGA) Scale ([12]; 8 week): 1; Investigator Global Assesment (IGA) Scale ([12]; Baseline): 3
– | – | C=CC[C@@H]1/C=C(\C)C[C@H](C)C[C@H](OC)[C@H]2O[C@@](O)(C(=O)C(=O)N3CCCC[C@H]3C(=O)O[C@H](/C(C)=C/[C@@H]3CC[C@@H](O)[C@H](OC)C3)[C@H](C)[C@@H](O)CC1=O)[C@H](C)C[C@@H]2OC [FK506, reference compound] | – | – | – | – | – | – | – | – | – | IC50 [13]: 0.01 µM; MPO (% inhibition) [14]: 81%; Edema (% inhibition) ([14]; ear thickness): 0%; inhibition in vivo at 1 % [15]: 32%; IC50 [16]: 0.6 µM; IC50 [17]: 0.0004 µM
1000 µg/mL (≈ 7.24 mM) | > 1 µM | O=C(O)c1ccccc1O [Salicylic Acid, reference compound] | 2000 µg/mL (≈ 14.5 mM) | >8000 μg/mL and (>57920) μM | 1.0 Fold-expression/untreated cells | 1.2 Fold-expression/untreated cells | 1.2 Fold-expression/untreated cells | 0% | 40% | 0% | 0% | –
